How the values were obtained:
[1] = excess molar enthalpy (molar enthalpy of mixing); xn = mol fraction of the nth substance listed; conditions: 308.15 K, 101 kPa, Liquid, two-drop calorimeter
[2] = xn = mol fraction of the nth substance listed; conditions: 101 kPa, Liquid; for speed of sound: Sing-around technique in a fixed-path interferometer; for mass density: Vibrating tube method

Cc1cccnc1 [3-methylpyridine] + Cc1ccccc1N
[1]
Conditions | excess molar enthalpy [kcal/mol]
x2 = 0.0503 | -0.0794
x2 = 0.0843 | -0.125
x2 = 0.1425 | -0.194
x2 = 0.1901 | -0.236
x2 = 0.2323 | -0.268
x2 = 0.2837 | -0.301
x2 = 0.3334 | -0.321
x2 = 0.3783 | -0.334
x2 = 0.4436 | -0.337
x2 = 0.4926 | -0.337
x2 = 0.5487 | -0.323
x2 = 0.5902 | -0.312
x2 = 0.6643 | -0.281
x2 = 0.7182 | -0.248
x2 = 0.7789 | -0.209
x2 = 0.8348 | -0.163
x2 = 0.8937 | -0.11

[2]
Conditions | mass density, 298.15 K [kg/m3] | mass density, 303.15 K [kg/m3] | mass density, 308.15 K [kg/m3] | speed of sound, 298.15 K [m/s] | speed of sound, 303.15 K [m/s] | speed of sound, 308.15 K [m/s]
x2 = 0.0447 | 955.059 | 950.551 | 945.98 | 1433 | 1413 | 1393.3
x2 = 0.1132 | 959.404 | 954.953 | 950.452 | 1446.4 | 1426.4 | 1407
x2 = 0.1771 | 963.134 | 958.721 | 954.262 | 1458.6 | 1438.8 | 1419.5
x2 = 0.2069 | 964.775 | 960.381 | 955.934 | 1464.1 | 1444.5 | 1425.1
x2 = 0.2467 | 966.875 | 962.502 | 958.079 | 1471.5 | 1451.9 | 1432.5
x2 = 0.2888 | 968.994 | 964.629 | 960.232 | 1479.1 | 1459.8 | 1440.4
x2 = 0.3112 | 970.081 | 965.722 | 961.335 | 1483.1 | 1463.9 | 1444.3
x2 = 0.3624 | 972.469 | 968.119 | 963.751 | 1492.2 | 1473.1 | 1453.4
x2 = 0.4182 | 974.916 | 970.586 | 966.234 | 1502 | 1483 | 1463.2
x2 = 0.4632 | 976.799 | 972.478 | 968.134 | 1509.7 | 1490.6 | 1470.9
x2 = 0.5336 | 979.577 | 975.273 | 970.94 | 1521.7 | 1502.6 | 1482.7
x2 = 0.5778 | 981.226 | 976.931 | 972.616 | 1529.2 | 1509.7 | 1489.9
x2 = 0.6334 | 983.223 | 978.936 | 974.642 | 1538.6 | 1518.8 | 1499
x2 = 0.6967 | 985.375 | 981.112 | 976.836 | 1549.2 | 1528.8 | 1509.3
x2 = 0.7372 | 986.701 | 982.449 | 978.187 | 1556 | 1535.1 | 1515.8
x2 = 0.8156 | 989.151 | 984.927 | 980.689 | 1569.5 | 1547.5 | 1528.4
x2 = 0.8842 | 991.171 | 986.982 | 982.772 | 1581.5 | 1558.4 | 1539.5
x2 = 0.9711 | 993.588 | 989.441 | 985.272 | 1597.2 | 1572.8 | 1553.6
